Values quoted from earlier work as cited in article PMC3015105 (Bioorganic & medicinal chemistry letters, 2010).

How the values were obtained:
[1] = target: human dopamine transporter (hDAT) (Homo sapiens, UniProt Q01959); conditions: read-out: IC50 DAT inhibition; reported by Carroll
Sequence of human dopamine transporter (hDAT) (Q01959 whole entry): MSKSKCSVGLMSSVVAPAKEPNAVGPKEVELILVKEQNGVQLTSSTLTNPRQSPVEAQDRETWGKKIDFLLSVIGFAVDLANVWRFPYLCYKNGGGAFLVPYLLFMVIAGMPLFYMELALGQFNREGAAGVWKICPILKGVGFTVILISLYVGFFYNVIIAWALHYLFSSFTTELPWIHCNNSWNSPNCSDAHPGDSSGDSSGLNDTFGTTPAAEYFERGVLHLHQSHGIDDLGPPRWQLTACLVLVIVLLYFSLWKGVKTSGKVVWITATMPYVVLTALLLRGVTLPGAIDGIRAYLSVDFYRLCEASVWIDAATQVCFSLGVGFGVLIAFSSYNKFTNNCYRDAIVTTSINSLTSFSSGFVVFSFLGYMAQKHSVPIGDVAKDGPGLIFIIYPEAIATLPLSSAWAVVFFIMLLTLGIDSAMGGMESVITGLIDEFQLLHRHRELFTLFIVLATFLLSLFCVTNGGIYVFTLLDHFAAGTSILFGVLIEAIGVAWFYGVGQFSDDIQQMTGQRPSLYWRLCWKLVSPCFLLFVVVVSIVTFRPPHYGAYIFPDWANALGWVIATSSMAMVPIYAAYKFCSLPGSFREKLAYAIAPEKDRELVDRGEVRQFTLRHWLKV

## Cc1cc(C2C3CCC(CC2c2ccc(Cl)cc2)S3)on1 (stereo not drawn) [2β-(3-methylisoxazol-5-yl)-3β-(4-chlorophenyl)-8-thiabicyclo[3.2.1]octane]
[1]
  IC50: 0.59 nM

## COC(=O)[C@H]1[C@@H](OC(=O)c2ccccc2)C[C@@H]2CC[C@H]1N2C [Cocaine]
other
  duration of action: 10 to 15 min
  immediate effect (onset): < 15 s
